Measured values taken from ChEMBL document CHEMBL1201862, “PubChem BioAssay data set” (2004).
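Assay format: 96-well plates, 48-hour exposure. GI50: concentration for 50% inhibition of growth.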 Active and inactive are the calls of the source. No stated cut-off is given here; in the data, active = GI50 up to about 1.1 µM and inactive = higher.

Tests used:
Experiment in all cases: inhibition of tumour cell growth, NCI panel, 48 h
A549 = system: A549
HCC 2998 = system: HCC 2998
HOP-62 = system: HOP-62
LOX IMVI = system: LOX IMVI
MDA-MB-435 = system: MDA-MB-435
NCI-H226 = system: NCI-H226
NCI-H522 = system: NCI-H522
OVCAR-3 = system: OVCAR-3
OVCAR-4 = system: OVCAR-4
OVCAR-5 = system: OVCAR-5
PC-3 = system: PC-3
RXF 393 = system: RXF 393
SNB-19 = system: SNB-19
SR = system: SR
SW-620 = system: SW-620
T47D = system: T47D
UACC-257 = system: UACC-257
UACC-62 = system: UACC-62
UO-31 = system: UO-31

Measured: GI50

O=C1c2ccccc2C(=O)c2c(Nc3ccc4c5c(cccc35)C(=O)c3ccccc3-4)cccc21
inactive: A549 > 100 µM | HCC 2998 > 100 µM | HOP-62 > 100 µM | LOX IMVI > 100 µM | MDA-MB-435 > 100 µM | NCI-H226 > 100 µM | NCI-H522 > 100 µM | OVCAR-3 > 100 µM | OVCAR-4 > 100 µM | OVCAR-5 > 100 µM | PC-3 > 100 µM | RXF 393 > 100 µM | SNB-19 > 100 µM | SR > 100 µM | SW-620 > 100 µM | T47D > 100 µM | UACC-257 > 100 µM | UACC-62 > 100 µM | UO-31 > 100 µM

CC(C)(C)OC/C=C1\C(=O)O[C@H]2C[C@@H](O[Si](C)(C)C(C)(C)C)C[C@@H]12
inactive: A549 69.2 µM | HCC 2998 > 100 µM | HOP-62 85.3 µM | LOX IMVI 98.2 µM | MDA-MB-435 96.2 µM | NCI-H226 > 100 µM | NCI-H522 33.5 µM | OVCAR-3 49.9 µM | OVCAR-4 92.3 µM | OVCAR-5 > 100 µM | PC-3 66.5 µM | RXF 393 32.2 µM | SNB-19 > 100 µM | SR 37.3 µM | SW-620 > 100 µM | T47D 27.9 µM | UACC-257 62.4 µM | UO-31 53.8 µM

O=[N+]([O-])c1ccc(N2N=C(c3ccc4ccccc4c3O)CC2c2ccc(Cl)cc2)c([N+](=O)[O-])c1 (stereo unspecified)
inactive: A549 30.4 µM | HCC 2998 46.5 µM | HOP-62 41.2 µM | MDA-MB-435 16.9 µM | NCI-H226 50.8 µM | NCI-H522 22.1 µM | OVCAR-3 24.8 µM | OVCAR-4 55.1 µM | OVCAR-5 > 100 µM | PC-3 23.8 µM | RXF 393 28.6 µM | SR 18.2 µM | SW-620 29.9 µM | T47D 51.4 µM | UACC-257 32.1 µM | UACC-62 > 100 µM | UO-31 > 100 µM

Cc1ccc(S(=O)(=O)N2CCN3C(=O)c4ccccc4C32c2ccc(F)cc2)cc1 (stereo unspecified)
inactive: A549 51.4 µM | HCC 2998 > 100 µM | HOP-62 > 100 µM | MDA-MB-435 32.8 µM | NCI-H226 64 µM | NCI-H522 55.8 µM | OVCAR-3 > 100 µM | OVCAR-4 > 100 µM | OVCAR-5 > 100 µM | PC-3 32 µM | RXF 393 65.2 µM | SNB-19 > 100 µM | SR 16.9 µM | SW-620 87.9 µM | T47D 56.6 µM | UACC-257 56 µM | UACC-62 44.9 µM | UO-31 44.5 µM

O=C1Nc2ccc(Cl)cc2C(=O)N2CCC[C@@H]12
inactive: A549 > 100 µM | HCC 2998 > 100 µM | HOP-62 > 100 µM | LOX IMVI > 100 µM | MDA-MB-435 > 100 µM | NCI-H226 > 100 µM | NCI-H522 > 100 µM | OVCAR-3 > 100 µM | OVCAR-4 > 100 µM | OVCAR-5 > 100 µM | PC-3 > 100 µM | RXF 393 60.3 µM | SNB-19 > 100 µM | SR > 100 µM | SW-620 > 100 µM | T47D > 100 µM | UACC-257 > 100 µM | UACC-62 > 100 µM | UO-31 > 100 µM
